This is an account of results in PubChem BioAssay (NCI).

Common to all, as to experiment: growth of human tumour cells (NCI), 48 h
The subject of assay [1] is NCI-H522 lung.
Assay [2] relates to SW-620 colon.
Assay [3] has as its system M14 melanoma.
Assay [4] deals with OVCAR-4 ovarian.
The subject of assay [5] is NCI-H226 lung.
For assay [6], the system named is MALME-3M melanoma.
Assay [7] has as its system CCRF-CEM leukemia.
The test system of assay [8] is NCI-H23 lung.
The subject of assay [9] is UACC-257 melanoma.
Assay [10] has as its system RXF 393 renal.

Values joined by “and” are separate entries in the source; they are usually repeats but may differ in a detail not shown here. Identical values can stand only once.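 Growth conditions: 96-well plates. Treatment: test compound, 48 hours, 5 concentrations. Analysis: linear interpolation between bracketing concentrations; unreached endpoints set to highest concentration. The concentration for 50% growth inhibition is given as GI50. The concentration for full growth arrest is given as TGI.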

Take `COc1ccc([C@@H](O)c2cc(-c3ncnc4cc(N5CCOCC5)ccc34)c(F)cc2Cl)nn1`: the GI50 in assay [1] is 3.31 µM; in assay [2], 6.78 µM; in [3], 4.91 µM; in assay [4], 6.12 µM; in assay [5], 3.82 µM; in assay [6], 6.4 µM. For the same molecule, the GI50 in assay [7] is 3.5 µM; in assay [8], 8 µM; in assay [9], 1.99 µM; in assay [10] it was 0.678 µM. In addition, the TGI in assay [1] is 22.3 µM; in assay [2], 52.2 µM; in assay [3], 28.5 µM; in assay [4] it was greater than 100 µM; in assay [5], 60.4 µM; in [6], 55.8 µM. Besides, the TGI in [7] amounted to 26.7 µM; in assay [8] it was 94.6 µM; in assay [9], 30 µM; in assay [10], 11.6 µM.

As to `COc1cc2c(c(OC)c1OC)-c1ccc(O)c(=O)cc1[C@@H](NC(C)=O)CC2`, the GI50 in [1] is 4.64 µM; in [2], 7 µM; in [3], 9.54 µM; in assay [4] it was 3.64 µM; in assay [5] it was 10.5 µM; in assay [6], 19.2 µM. The GI50 is 3.67 µM in assay [7], 4.34 µM in [9] and 14.6 µM in assay [10]. For the same molecule, the TGI was 90.8 µM and 36.4 µM in assay [1]; > 100 µM and 82.5 µM in assay [2]; 60.7 µM and 78.2 µM in [3]; > 100 µM and 66.1 µM in assay [4]; 80 µM and 44 µM in assay [5]; 97.7 µM in [6]. Also, the TGI in [7] is greater than 100 µM; in assay [8], 39.5 µM; in assay [9], 33.3 µM and 77.1 µM; in [10] it was greater than 100 µM.

For the molecule `COc1cc2ncnc3c2cc1OCCCCCN(C)Cc1ccc(Br)cc1N3`, the GI50 in assay [1] is 0.851 µM and 0.225 µM; in assay [2] it was 6.31 µM and 5.72 µM; in [3], 1.94 µM and 0.939 µM; in assay [4] it was 2.57 µM and 1.34 µM; in [5], 26.4 µM and 7.69 µM; in assay [6] it was 1.47 µM and 6.85 µM. For the same molecule, the GI50 in assay [7] is 10.2 µM and > 10 µM; in assay [8], 40.8 µM and > 10 µM; in assay [9], 17.9 µM and > 10 µM; in [10] it was 4.03 µM and 1.84 µM. Besides, the TGI was greater than 100 µM in assay [2]; greater than 100 µM in assay [3]; 43.1 µM and > 10 µM in assay [4]; greater than 100 µM in assay [5]; 23.3 µM and > 10 µM in assay [6]; greater than 100 µM in assay [7]. The TGI in assay [8], in assay [9] and in assay [10] was greater than 100 µM in each case.

In the case of `CCOC(=O)c1c(-c2ccccc2)c(C(OC(c2ccccc2)c2c(-c3ccccc3)c(C(=O)OCC)n3ccccc23)c2ccccc2)c2ccccn12` (stereo not drawn), the TGI in [1], in assay [2], in assay [3], in [4], in [5] and in assay [6] was greater than 100 µM in each case. In addition, the TGI in [7], in [8], in assay [9] and in [10] was greater than 100 µM in each case.

`COc1ccc2ccccc2c1CN1CCOCCOCCN(Cc2c(OC)ccc3ccccc23)CCOCCOCC1`: the TGI in assay [1] is greater than 89.8 µM; in assay [2] it was greater than 94.7 µM; in [3] it was 32.5 µM; in assay [4], greater than 100 µM; in assay [5], greater than 100 µM; in assay [6], greater than 63.9 µM. Further, the TGI was greater than 100 µM in [7], greater than 100 µM in assay [8], 65.5 µM in assay [9] and greater than 100 µM in [10].

On to `O=C(O)c1cccc(/C=C/c2ccccc2)c1`, for which the TGI in assay [1], in [2], in assay [3], in assay [4], in assay [5] and in assay [6] was greater than 100 µM in each case. The TGI in [7], in assay [8], in [9] and in [10] was greater than 100 µM throughout.

As for `COC(=O)[C@H]1[C@H]2C[C@@H]3c4[nH]c5cc(OC)ccc5c4CCN3C[C@H]2C[C@@H](OC(=O)/C=C/c2cc(OC)c(OC)c(OC)c2)[C@@H]1OC`, the GI50 is 10.4 µM in assay [1]; 8.47 µM in assay [2]; 6.24 µM in assay [3]; 3.39 µM in assay [4]; 26.7 µM in assay [5]; 18.7 µM in assay [6]. Besides, the GI50 was 1.48 µM in assay [7], 17.6 µM in assay [8], 18.4 µM in assay [9] and 11 µM in [10]. Further, the TGI in assay [1] was 27 µM; in [2] it was greater than 100 µM; in [3] it was 20 µM; in assay [4] it was 11.2 µM; in [5], greater than 100 µM; in assay [6], 50.6 µM. For the same molecule, the TGI in [7] was 5.62 µM; in assay [8], 53 µM; in assay [9] it was 68.1 µM; in [10], 31.5 µM.

For `NNS(=O)(=O)c1cc(C(=O)O)cc(C(=O)O)c1`, the TGI in [1], in assay [2], in [3], in assay [4], in assay [5] and in assay [6] was greater than 100 µM each time. Further, the TGI in assay [7], in [8], in assay [9] and in assay [10] was greater than 100 µM each time.

Turning to `S=P(N1CCCC1)(N1CC1)N1CC1`, the TGI in assay [1], in [2], in assay [3], in assay [4], in assay [5] and in assay [6] was greater than 100 µM in each case. For the same molecule, the TGI in [7], in assay [8], in [9] and in [10] was greater than 100 µM throughout.

As to `Cc1cnc(Nc2ccc(OCCN3CCCC3)cc2)nc1Nc1cccc(S(=O)(=O)NC(C)(C)C)c1`, the GI50 in [1] was 0.053 µM and 0.371 µM; in [2] it was 0.228 µM and 0.946 µM; in assay [3], 0.19 µM and 0.61 µM; in assay [4], 0.671 µM and 0.967 µM; in assay [5], 0.146 µM and 0.813 µM; in assay [6], 0.894 µM and 2.45 µM. Further, the GI50 in [7] was 0.398 µM and 1.3 µM; in assay [8] it was 0.307 µM and 1.92 µM; in [9] it was 1.28 µM and 3.99 µM; in assay [10] it was 0.0955 µM and 0.518 µM. The TGI was 1.35 µM and 3.15 µM in assay [1]; 3.54 µM and > 7.42 µM in assay [2]; 3.54 µM and 6.25 µM in assay [3]; 21.3 µM and > 10 µM in assay [4]; 1.9 µM and 2.97 µM in [5]; 12.3 µM and > 6.36 µM in assay [6]. Further, the TGI was greater than 21.7 µM in assay [7]; 7.05 µM and > 10 µM in [8]; 2.83 µM and > 10 µM in assay [9]; 0.385 µM and 1.78 µM in assay [10].
